Test [1] addresses PI3K-δ (PI3K(p1108/p857) (h)) (Homo sapiens, UniProt O00329). Description: Evaluation of inhibitory activity against PI3K-δ (HTRF kinase assay). It counts as biochemical. Conditions: for inhibition at 0.01 µM: compound concentration 0.01 μM, read-out: EXP_VALUE(% Inhibition) PI3K-δ 0.01 μM; for inhibition at 0.1 µM: compound concentration 0.1 μM, read-out: EXP_VALUE(% Inhibition) PI3K-δ 0.1 μM. In outline:
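HTRF read-out (665/620 nm ratio ×10000) used Eu-labelled anti-GST, GST-tagged GRP1 PH domain and streptavidin-allophycocyanin after EDTA/PIP3 stop.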
Background: In TR-FRET formats the signal depends on donor and acceptor labels being close together.

The target in a further test is DNA-PK(h) (Homo sapiens, UniProt P78527). Description: Evaluation of inhibitory activity against DNA-PK (HTRF kinase assay, GST-cMyc-p53 substrate). The format is biochemical. Conditions: for inhibition at 0.01 µM: compound concentration 0.01 μM, read-out: EXP_VALUE(% Inhibition) DNA-PK(h) 0.01 μM; for inhibition at 0.1 µM: compound concentration 0.1 μM, read-out: EXP_VALUE(% Inhibition) DNA-PK(h) 0.1 μM. In a few lines: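 Human DNA-PK with 50 μM GST-cMyc-p53 substrate; reaction started with Mg/ATP, run 30 min at room temperature, stopped with EDTA. Phospho-Ser15 p53 detected by HTRF (Eu anti-phospho-Ser15, d2 anti-GST), signal = 10000×(Em 665/Em 620).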

Chain of PI3K-δ (PI3K(p1108/p857) (h)) (O00329 whole entry, the tested form may be a part): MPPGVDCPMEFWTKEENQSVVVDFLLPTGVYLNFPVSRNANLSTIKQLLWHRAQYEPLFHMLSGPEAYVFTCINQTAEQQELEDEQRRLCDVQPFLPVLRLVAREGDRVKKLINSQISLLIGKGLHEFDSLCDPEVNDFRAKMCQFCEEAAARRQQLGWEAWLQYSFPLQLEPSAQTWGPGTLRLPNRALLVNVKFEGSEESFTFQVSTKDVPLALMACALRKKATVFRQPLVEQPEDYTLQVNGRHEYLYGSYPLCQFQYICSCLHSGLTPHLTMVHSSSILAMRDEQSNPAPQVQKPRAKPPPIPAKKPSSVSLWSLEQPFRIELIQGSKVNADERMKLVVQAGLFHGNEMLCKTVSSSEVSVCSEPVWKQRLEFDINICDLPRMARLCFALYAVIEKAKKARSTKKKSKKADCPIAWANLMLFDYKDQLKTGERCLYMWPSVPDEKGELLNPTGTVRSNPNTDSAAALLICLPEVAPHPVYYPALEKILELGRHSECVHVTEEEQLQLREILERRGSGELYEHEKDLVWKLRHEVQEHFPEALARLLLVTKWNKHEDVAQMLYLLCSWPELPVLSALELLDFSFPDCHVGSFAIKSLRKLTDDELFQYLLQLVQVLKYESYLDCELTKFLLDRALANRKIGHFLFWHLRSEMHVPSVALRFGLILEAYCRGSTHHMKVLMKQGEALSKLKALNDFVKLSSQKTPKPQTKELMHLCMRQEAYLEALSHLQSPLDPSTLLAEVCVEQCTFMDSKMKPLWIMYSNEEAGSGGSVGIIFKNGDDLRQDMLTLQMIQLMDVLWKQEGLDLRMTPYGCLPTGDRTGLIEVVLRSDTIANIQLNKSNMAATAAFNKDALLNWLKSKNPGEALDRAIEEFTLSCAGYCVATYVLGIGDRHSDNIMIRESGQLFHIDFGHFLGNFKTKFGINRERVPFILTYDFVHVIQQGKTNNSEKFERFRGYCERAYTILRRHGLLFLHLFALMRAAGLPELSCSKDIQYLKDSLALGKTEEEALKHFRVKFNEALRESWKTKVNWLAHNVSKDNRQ
Chain of PI3K-δ (PI3K(p1108/p857) (h)) (P27986 whole entry partner, the tested form may be a part): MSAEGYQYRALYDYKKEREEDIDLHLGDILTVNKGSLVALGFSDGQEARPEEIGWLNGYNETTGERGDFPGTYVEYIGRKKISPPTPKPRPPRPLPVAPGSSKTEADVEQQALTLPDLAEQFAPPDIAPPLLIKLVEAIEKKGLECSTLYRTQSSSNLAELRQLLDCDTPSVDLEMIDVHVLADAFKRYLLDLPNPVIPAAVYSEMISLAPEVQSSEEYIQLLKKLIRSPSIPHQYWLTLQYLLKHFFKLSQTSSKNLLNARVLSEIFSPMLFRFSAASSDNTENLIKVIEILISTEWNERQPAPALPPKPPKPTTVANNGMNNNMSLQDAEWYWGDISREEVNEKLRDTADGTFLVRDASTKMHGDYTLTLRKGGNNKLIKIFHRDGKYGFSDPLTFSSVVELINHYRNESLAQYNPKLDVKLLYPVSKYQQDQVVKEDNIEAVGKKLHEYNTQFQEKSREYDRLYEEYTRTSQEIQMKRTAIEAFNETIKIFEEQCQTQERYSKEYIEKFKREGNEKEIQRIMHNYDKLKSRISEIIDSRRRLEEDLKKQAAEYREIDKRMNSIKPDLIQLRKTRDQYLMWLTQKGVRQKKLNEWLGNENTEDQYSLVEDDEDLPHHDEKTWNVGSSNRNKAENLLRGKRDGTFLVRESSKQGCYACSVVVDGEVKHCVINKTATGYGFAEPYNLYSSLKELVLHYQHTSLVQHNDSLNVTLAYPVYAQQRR

`C[C@H](Nc1ncnc2[nH]ccc(=O)c12)c1c(Cl)c2cccc(NC(=O)c3ccccc3)c2c(=O)n1-c1ccccc1` [Example 299, (S)—N-(4-chloro-1-oxo-3-(1-((5-oxo-5,8-dihydropyrido[2,3-d]pyrimidin-4-yl)amino)ethyl)-2-phenyl-1,2-dihydroisoquinolin-8-yl)benzamide]: the figures for the inhibition at 0.01 µM (in test [1]; on DNA-PK(h)) were 13% and 17%, respectively.

`C[C@H](Nc1ncnc2[nH]ccc(=O)c12)c1c(Cl)c2cccc(NS(C)(=O)=O)c2c(=O)n1-c1ccccc1` [Example 300, (S)—N-(4-chloro-1-oxo-3-(1-((5-oxo-5,8-dihydropyrido[2,3-d]pyrimidin-4-yl)amino)ethyl)-2-phenyl-1,2-dihydroisoquinolin-8-yl) methanesulfonamide]: the figures for the inhibition at 0.01 µM (in test [1]; on DNA-PK(h)) were 63% and 44%, respectively.

As to `C[C@H](Nc1ncnc2[nH]ccc(=O)c12)c1c(Cl)c2cccc(NS(=O)(=O)C3CC3)c2c(=O)n1-c1ccccc1` [Example 301, (S)—N-(4-chloro-1-oxo-3-(1-((5-oxo-5,8-dihydropyrido[2,3-d]pyrimidin-4-yl)amino)ethyl)-2-phenyl-1,2-dihydroisoquinolin-8-yl)cyclopropanesulfonamide], the inhibition at 0.01 µM in test [1] is 41%; at DNA-PK(h) it was 14%.

In the case of `C[C@H](Nc1ncnc2[nH]ccc(=O)c12)c1c(Cl)c2cccc(NS(=O)(=O)CC(F)(F)F)c2c(=O)n1-c1ccccc1` [Example 302, (S)—N-(4-chloro-1-oxo-3-(1-((5-oxo-5,8-dihydropyrido[2,3-d]pyrimidin-4-yl)amino)ethyl)-2-phenyl-1,2-dihydroisoquinolin-8-yl)-2,2,2-trifluoroethane-1-sulfonamide], the inhibition at 0.01 µM (in test [1]; on DNA-PK(h)) was 16% throughout.

In the case of `C[C@H](Nc1ncnc2[nH]ccc(=O)c12)c1c(Cl)c2cccc(NS(=O)(=O)c3ccc(F)cc3)c2c(=O)n1-c1ccccc1` [Example 303, (S)—N(4-chloro-1-oxo-3-(1-((5-oxo-5,8-dihydropyrido[2,3-d]pyrimidin-4-yl)amino)ethyl)-2-phenyl-1,2-dihydroisoquinolin-8-yl)-4-fluorobenzenesulfonamide], the inhibition at 0.01 µM in test [1] is 12%; on DNA-PK(h), 6%.

Take `C[C@H](Nc1ncnc2[nH]ccc(=O)c12)c1c(Cl)c2cccc(C#Cc3cccs3)c2c(=O)n1-c1ccccc1` [Example 304, (S)-4-((1-(4-chloro-1-oxo-2-phenyl-8-(thiophen-2-ylethynyl)-1,2-dihydroisoquinolin-3-yl)ethyl)amino)pyrido[2,3-d]pyrimidin-5(8H)-one]: in test [1], the inhibition at 0.01 µM came out at 71% and the inhibition at 0.1 µM stood at 101%. For the same compound, on DNA-PK(h), the inhibition at 0.01 µM came out at 27% and the inhibition at 0.1 µM is 71%.

Regarding `C[C@H](Nc1ncnc2[nH]ccc(=O)c12)c1c(Cl)c2cccc(C#Cc3ccccc3)c2c(=O)n1-c1ccccc1` [Example 305, (S)-4-((1-(4-chloro-1-oxo-2-phenyl-8-(phenylethynyl)-1,2-dihydroisoquinolin-3-yl)ethyl)amino)pyrido[2,3-d]pyrimidin-5(8H)-one], in test [1], the inhibition at 0.01 µM was 83% and the inhibition at 0.1 µM was determined as 99%. Also, at DNA-PK(h), the inhibition at 0.01 µM came to 20% and the inhibition at 0.1 µM stood at 62%.

Consider `C[C@H](Nc1ncnc2[nH]ccc(=O)c12)c1c(Cl)c2cccc(C#Cc3ccncc3)c2c(=O)n1-c1ccccc1` [Example 306, (S)-4-((1-(4-chloro-1-oxo-2-phenyl-8-(pyridin-4-ylethynyl)-1,2-dihydroisoquinolin-3-yl)ethyl)amino)pyrido[2,3-d]pyrimidin-5(8H)-one], for which, in test [1], the inhibition at 0.01 µM is 57% and the inhibition at 0.1 µM stood at 105%. At DNA-PK(h), the inhibition at 0.01 µM was determined as 75% and the inhibition at 0.1 µM came out at 95%.

In the case of `C[C@H](Nc1ncnc2[nH]ccc(=O)c12)c1c(Cl)c2cccc(C#Cc3cccnc3)c2c(=O)n1-c1ccccc1` [Example 307, (S)-4-((1-(4-chloro-1-oxo-2-phenyl-8-(pyridin-3-ylethynyl)-1,2-dihydroisoquinolin-3-yl)ethyl)amino)pyrido[2,3-d]pyrimidin-5(8H)-one], the inhibition at 0.01 µM in test [1] is 83%; at DNA-PK(h), 80%. Also, the figures for the inhibition at 0.1 µM (in test [1]; at DNA-PK(h)) were 114% and 95%, respectively.

For the compound `C[C@H](Nc1ncnc2[nH]ccc(=O)c12)c1c(Cl)c2cccc(C#Cc3ccccn3)c2c(=O)n1-c1ccccc1` [Example 308, (S)-4-((1-(4-chloro-1-oxo-2-phenyl-8-(pyridin-2-ylethynyl)-1,2-dihydroisoquinolin-3-yl)ethyl)amino)pyrido[2,3-d]pyrimidin-5(8H)-one], in test [1], the inhibition at 0.01 µM was found to be 28.4% and the inhibition at 0.1 µM came out at 60.3%. Also, at DNA-PK(h), the inhibition at 0.01 µM was 21.5% and the inhibition at 0.1 µM is 70.3%.

Consider `C[C@H](Nc1ncnc2[nH]ccc(=O)c12)c1c(Cl)c2cccc(C#Cc3cnn(C)c3)c2c(=O)n1-c1ccccc1` [Example 309, (S)-4-((1-(4-chloro-8-((1-methyl-1H-pyrazol-4-yl)ethynyl)-1-oxo-2-phenyl-1,2-dihydroisoquinolin-3-yl)ethyl)amino)pyrido[2,3-d]pyrimidin-5(8H)-one], for which, in test [1], the inhibition at 0.01 µM came to 42.4% and the inhibition at 0.1 µM was 65.6%. At DNA-PK(h), the inhibition at 0.01 µM stood at 23.2% and the inhibition at 0.1 µM came out at 64.8%.

For the compound `C[C@H](Nc1ncnc2[nH]ccc(=O)c12)c1c(Cl)c2cccc(C#Cc3ccc(-c4ccccc4)cc3)c2c(=O)n1-c1ccccc1` [Example 310, (S)-4-((1-(8-([1,1′-biphenyl]-4-ylethynyl)-4-chloro-1-oxo-2-phenyl-1,2-dihydroisoquinolin-3-yl)ethyl)amino)pyrido[2,3-d]pyrimidin-5(8H)-one], the values for the inhibition at 0.01 µM (in test [1]; on DNA-PK(h)) were 31.5% and -2.5%, respectively. The inhibition at 0.1 µM in test [1] was found to be 20.4%; at DNA-PK(h), 3.2%.

Consider `C[C@H](Nc1ncnc2[nH]ccc(=O)c12)c1c(Cl)c2cccc(C#Cc3ccnn3C)c2c(=O)n1-c1ccccc1` [Example 311, (S)-4-((1-(4-chloro-8-((1-methyl-1H-pyrazol-5-yl)ethynyl)-1-oxo-2-phenyl-1,2-dihydroisoquinolin-3-yl)ethyl)amino)pyrido[2,3-d]pyrimidin-5(8H)-one], for which, in test [1], the inhibition at 0.01 µM amounted to 18.2% and the inhibition at 0.1 µM was determined as 39.5%. In addition, on DNA-PK(h), the inhibition at 0.01 µM is 47.1% and the inhibition at 0.1 µM was found to be 82.2%.

As for `C[C@H](Nc1ncnc2[nH]ccc(=O)c12)c1c(Cl)c2cccc(C#Cc3nccs3)c2c(=O)n1-c1ccccc1` [Example 312, (S)-4-((1-(4-chloro-1-oxo-2-phenyl-8-(thiazol-2-ylethynyl)-1,2-dihydroisoquinolin-3-yl)ethyl)amino)pyrido[2,3-d]pyrimidin-5(8H)-one], in test [1], the inhibition at 0.01 µM is 46.8% and the inhibition at 0.1 µM was found to be 77.1%. Further, on DNA-PK(h), the inhibition at 0.01 µM turned out to be 39.8% and the inhibition at 0.1 µM stood at 84.3%.

Take `C[C@H](Nc1ncnc2[nH]ccc(=O)c12)c1c(Cl)c2cccc(C#Cc3cncs3)c2c(=O)n1-c1ccccc1` [Example 313, (S)-4-((1-(4-chloro-1-oxo-2-phenyl-8-(thiazol-5-ylethynyl)-1,2-dihydroisoquinolin-3-yl)ethyl)amino)pyrido[2,3-d]pyrimidin-5(8H)-one]: the inhibition at 0.01 µM in test [1] amounted to 20.2%; at DNA-PK(h), 47.2%. In addition, the inhibition at 0.1 µM in test [1] is 55%; on DNA-PK(h) it was 84.6%.

In the case of `C[C@H](Nc1ncnc2[nH]ccc(=O)c12)c1c(Cl)c2cccc(C#Cc3ccc(N(C)C)cc3)c2c(=O)n1-c1ccccc1` [Example 314, (S)-4-((1-(4-chloro-8-((4-(dimethylamino)phenyl)ethynyl)-1-oxo-2-phenyl-1,2-dihydroisoquinolin-3-yl)ethyl)amino)-5-oxo-5,8-dihydropyrido[2,3-d]pyrimidin-5(8H)-one], in test [1], the inhibition at 0.01 µM was 76% and the inhibition at 0.1 µM turned out to be 96%. Moreover, at DNA-PK(h), the inhibition at 0.01 µM was determined as 25% and the inhibition at 0.1 µM is 75%.

For `C[C@H](Nc1ncnc2[nH]ccc(=O)c12)c1c(Cl)c2cccc(C#Cc3ccc(C(F)(F)F)cc3)c2c(=O)n1-c1ccccc1` [Example 315, (S)-4-((1-(4-chloro-1-oxo-2-phenyl-8-((4-(trifluoromethyl)phenyl)ethynyl)-1,2-dihydroisoquinolin-3-yl)ethyl)amino)-5-oxo-5,8-dihydropyrido[2,3-d]pyrimidin-5(8H)-one, 2,2,2-trifluoroacetate], in test [1], the inhibition at 0.01 µM was found to be 39% and the inhibition at 0.1 µM came to 89%. Further, on DNA-PK(h), the inhibition at 0.01 µM worked out at 18% and the inhibition at 0.1 µM is 62%.

Take `C[C@H](Nc1ncnc2[nH]ccc(=O)c12)c1c(Cl)c2cccc(C#Cc3cncnc3)c2c(=O)n1-c1ccccc1` [Example 316, (S)-4-((1-(4-chloro-1-oxo-2-phenyl-8-(pyrimidin-5-ylethynyl)-1,2-dihydroisoquinolin-3-yl)ethyl)amino)pyrido[2,3-d]pyrimidin-5(8H)-one]: in test [1], the inhibition at 0.01 µM was 43% and the inhibition at 0.1 µM amounted to 91%. Further, on DNA-PK(h), the inhibition at 0.01 µM was 88% and the inhibition at 0.1 µM amounted to 99%.

As a reminder, the inhibition is the change of the read-out against control, counted positive when it falls.

(Values after US20230072683A1, “PYRIDO-PYRIMIDIN DERIVATIVES AND PHARMACEUTICAL COMPOSITION, FOR USE IN PREVENTING OR TREATING PI3 KINASE RELATED DISEASES, COMPRISING SAME AS ACTIVE INGREDIENT” (BORYUNG PHARMACEUTICAL CO., LTD, priority 2019, published 2023).)
